Data set [1] in a line: Isoelectric point (pI) of the peptide. Type of data set: physicochemical.
Data set [2] can be described thus: Mineral precipitation (mfu by SEM) on peptide-coated coin shaped titanium specimens, Example 1. The protocol:
Eight coin shaped implants with a diameter of 6.25 mm, was attached to an titanium electrode and submerged in an sterile electrolyte containing 0.5 M NaCl, adjusted to pH 8.0 by the use of 1.0 M NaOH, and a synthetic poly-proline peptide designed to stimulate nucleation of calcium phosphate crystals. The peptide, having a pI of 5.82, had the following sequence: PLV PSY PLV PSY PLV PSY PYP PLPP (SEQ ID NO:3), and was applied at a final concentration of 0.01 mg/ml in the electrolyte. The electrode was attached to the positive outlet of a power supply, and an electrical current of 10 Volts at 100 mA at a cell temperature of 40 degrees Celsius, was applied for eight hours. The electrolytic process produced a thin peptide coating onto the oxidized titanium surface visible as a greyish precipitation. After coating the titanium specimens were rinsed in sterile water and subsequently put into sterile glass containers where they were allowed to air-dry. Eight identical titanium specimens, treated identically as the test specimens with the exception that no peptides were added to the electrolyte, was produced as controls. After drying, the titanium specimens (peptide coated and controls) were submerged in 50 ml of a saturated solution of calcium phosphate at 50 degrees Celsius. The solution was then allowed to cool to room temperature and incubated at 25 degrees Celsius for 48 hours. The titanium specimens were then removed from the solution, rinsed briefly in sterile water and air-dried in a desiccator. When dry, the implants were directly analyzed by scanning electron microscopy (SEM) for quantitative and qualitative assessment of the number and nature of mineral precipitation foci present on their surfaces. The number of mineral forming units (mfu) on the surface directly corresponds to the number of mineral nucleation sites present on the surface during the experiments.
This is a strong indication that the synthetic peptide used here positively influence the formation of bone mineral deposition onto titanium surfaces.

Data set [3] deals with LDH activity. The data set is described as follows: Wound fluid LDH activity at implant site, tresyl chloride coupled peptide, Example 5. Type of data set: in vivo, rabbits (New Zealand White). Particulars: 4 weeks healing, vs control implants; tresyl chloride coupling. The protocol: The surface of the machined titanium implant was first covered with 10 μl of tresyl chloride (2,2,2-trifluoroethanesulfonyl chloride) and incubated at 37° C. for 2 days. Then, the tresylated titanium implant was washed with water, water-acetone (50:50), acetone, and dried in a desiccator.
Peptide solution (10 μl, 0.1 mg/ml) was applied to the surface of the titanium implant and incubated for 24 h at 37° C., then rinsed with water. Finally, implants were dried in a desiccator, packed and stored at 4° C.
(§1) The implants with consensus peptide coated surfaces (n=12) and controls (n=12) were placed in calibrated cortical bone defects in the tibia of rabbits (New Zealand White). A small central fenestration into the bone marrow beneath each implant was made to allow for migration of osteogenic cells to the implant surfaces. The methods used were all according to a standardized and validated model established for the study of bone attachment to titanium implant surfaces (Rønold and Ellingsen, 2002). Each rabbit received four implants, two in each tibia bone. Location of test and control implants was randomized and the operator was blinded. At four weeks after implantation the rabbits were sacrificed and the tibia bones with the implants attached were excised. […]
(§2) LDH activity and total protein was analysed in the wound fluid collected from the implant site following a 4 week healing period. […]

Data set [4] deals with LDH activity. The data set can be described thus: Wound fluid LDH activity at implant site, physically adsorbed peptide, Example 6. Type of data set: in vivo, rabbits (New Zealand White). To be noted: 4 weeks healing, vs control implants; physical adsorption. Here is the method: Peptides can be physically adsorbed onto a titanium surface, as an alternative method for covalent binding. Negatively charged carboxylic groups show a strong affinity for metal oxide surfaces and can therefore directly interact with the titanium surface (Imamura et al, 2007). Peptide solution (10 μl, 0.1 mg/ml) was applied to the surface of the titanium implant and incubated for 24 h at 37° C. After 24 h, titanium implants were rinsed and packed with the same method as described above. Control implants were treated with 10 μl of PBS without adding peptide.
as §1, with “blinded.” for “blinded. At four weeks after implantation the rabbits were sacrificed and the tibia bones with the implants attached were excised.”
as §2

Values joined by “and” are separate entries in the source; they are usually repeats but may differ in a detail not shown here. Equal values may be shown once. Ends that are not written are not given here. A value given as a limit tells only on which side of the number the result lay.

For the substance “PLV PSY PLV PSY PLV PSY PYP PLPP (PLVPSYPLVPSYPLVPSYPYPPLPP; Mineralization/biomineralization inducing peptide) [SEQ ID NO 3]”, in data set [1], the pI came to 5.82. Also, the “Number of mineral forming units (mfu) per square mm titanium surface assessed by SEM” value in data set [2] (individual peptide coated specimens, saturated calcium phosphate solution, 48 hours at 25 degrees Celsius) is 5625 mfu mfu per square mm and Confluent (Values above 10.000 are recorded as “Confluent”) (4×) and 7744 mfu mfu per square mm and 9025 mfu mfu per square mm and 8100 mfu mfu per square mm. For the same substance, the “Number of mineral forming units (mfu) per square mm titanium surface assessed by SEM, mean values” in data set [2] (mean of peptide coated specimens (n = 8)) is given as greater than 8812 mfu mfu per square mm. In data set [2] (peptide coated titanium specimens vs controls without peptide), the “number of mineral deposition foci versus controls” value is reported as “significantly (p<0.01) increased”.

“PLVPSQPLVPSQPLVPSQPQPPLPP [SEQ ID NO 4, PLV PSQ PLV PSQ PLV PSQ PQP PLPP]”: the “LDH activity in the periimplant tissue (wound fluid)” value in the data set on LDH activity [3] and in the data set with LDH activity [4] was “decrease” each time.

For the origin of these results see patent publication US8367602B2, “Consensus peptides and a method for inducing biomineralization” (Corticalis AS, priority 2006, dated 2013).
